# From ChEMBL document CHEMBL4602639, “A novel series of 11-O-carbamoyl-3-O-descladinosyl clarithromycin derivatives bearing 1,2,3-triazole group: Design, synthesis and antibacterial evaluation” (2020)
# Key:
# Assay type in all cases: functional
# Staphylococcus aureus [1] = assay: Antibacterial activity against erythromycin-susceptible Staphylococcus aureus ATCC 25923 by standard broth microdilution method
# Escherichia coli = assay: Antibacterial activity against penicillin-susceptible Escherichia coli ATCC 25922 by standard broth microdilution method
# Bacillus subtilis = assay: Antibacterial activity against penicillin-susceptible Bacillus subtilis ATCC 9372 by standard broth microdilution method
# Pseudomonas aeruginosa = assay: Antibacterial activity against penicillin-susceptible Pseudomonas aeruginosa ATCC 27853 by standard broth microdilution method
# Streptococcus pneumoniae [2] = assay: Antibacterial activity against erythromycin-resistant Streptococcus pneumoniae AB11 expressing ermB and me/A genes by standard broth microdilution method
# Streptococcus pneumoniae [3] = assay: Antibacterial activity against erythromycin-resistant Streptococcus pneumoniae B1 expressing ermB gene by standard broth microdilution method
# Streptococcus pyogenes [4] = assay: Antibacterial activity against erythromycin resistant Streptococcus pyogenes R1 by standard broth microdilution method
# Staphylococcus aureus [5] = assay: Antibacterial activity against methicillin-resistant Staphylococcus aureus ATCC 43300 by standard broth microdilution method
# Streptococcus pyogenes [6] = assay: Potency index, ratio of MIC of CAM to MIC of compound for antibacterial activity against erythromycin resistant Streptococcus pyogenes R1
# Streptococcus pyogenes [7] = assay: Potency index, ratio of MIC of AZM to MIC of compound for antibacterial activity against erythromycin resistant Streptococcus pyogenes R1
Compound,MIC (Staphylococcus aureus [1]) [µg/mL],MIC (Escherichia coli) [µg/mL],MIC (Bacillus subtilis) [µg/mL],MIC (Pseudomonas aeruginosa) [µg/mL],MIC (Streptococcus pneumoniae [2]) [µg/mL],MIC (Streptococcus pneumoniae [3]) [µg/mL],MIC (Streptococcus pyogenes [4]) [µg/mL],MIC (Staphylococcus aureus [5]) [µg/mL],Ratio (Streptococcus pyogenes [6]),Ratio (Streptococcus pyogenes [7])
CC[C@H]1OC(=O)[C@H](C)C(=O)[C@H](C)[C@@H](O[C@H]2O[C@@H](C)C[C@@H](N(C)C)[C@@H]2O)[C@](C)(OC)C[C@@H](C)C(=O)[C@H](C)[C@@H](OC(=O)NCCn2cc(-c3cccc([N+](=O)[O-])c3)nn2)[C@]1(C)O,8,> 128,4,128,128,256,64,> 256,,
CC[C@H]1OC(=O)[C@H](C)C(=O)[C@H](C)[C@@H](O[C@H]2O[C@@H](C)C[C@@H](N(C)C)[C@@H]2O)[C@](C)(OC)C[C@@H](C)C(=O)[C@H](C)[C@@H](OC(=O)NCCn2cc(-c3cccc(Br)c3)nn2)[C@]1(C)O,16,> 128,8,128,128,256,128,> 256,,
CC[C@H]1OC(=O)[C@H](C)C(=O)[C@H](C)[C@@H](O[C@H]2O[C@@H](C)C[C@@H](N(C)C)[C@@H]2O)[C@](C)(OC)C[C@@H](C)C(=O)[C@H](C)[C@@H](OC(=O)NCCn2cc(-c3cccc(C)c3)nn2)[C@]1(C)O,32,> 128,8,128,256,> 256,256,> 256,,
CC[C@H]1OC(=O)[C@H](C)C(=O)[C@H](C)[C@@H](O[C@H]2O[C@@H](C)C[C@@H](N(C)C)[C@@H]2O)[C@](C)(OC)C[C@@H](C)C(=O)[C@H](C)[C@@H](OC(=O)NCCn2cc(-c3ccc(C)cc3)nn2)[C@]1(C)O,32,> 128,8,128,256,> 256,256,> 256,,
CC[C@H]1OC(=O)[C@H](C)C(=O)[C@H](C)[C@@H](O[C@H]2O[C@@H](C)C[C@@H](N(C)C)[C@@H]2O)[C@](C)(OC)C[C@@H](C)C(=O)[C@H](C)[C@@H](OC(=O)NCCn2cc(-c3cccc(Cl)c3)nn2)[C@]1(C)O,8,> 128,4,128,128,128,64,256,,
CCc1ccc(-c2cn(CCNC(=O)O[C@@H]3[C@@H](C)C(=O)[C@H](C)C[C@@](C)(OC)[C@H](O[C@H]4O[C@@H](C)C[C@@H](N(C)C)[C@@H]4O)[C@@H](C)C(=O)[C@@H](C)C(=O)O[C@H](CC)[C@@]3(C)O)nn2)cc1,32,> 128,4,128,256,> 256,128,> 256,,
CC[C@H]1OC(=O)[C@H](C)C(=O)[C@H](C)[C@@H](O[C@H]2O[C@@H](C)C[C@@H](N(C)C)[C@@H]2O)[C@](C)(OC)C[C@@H](C)C(=O)[C@H](C)[C@@H](OC(=O)NCCCn2cc(-c3ccccc3)nn2)[C@]1(C)O,8,> 128,8,128,64,128,64,256,,
CC[C@H]1OC(=O)[C@H](C)C(=O)[C@H](C)[C@@H](O[C@H]2O[C@@H](C)C[C@@H](N(C)C)[C@@H]2O)[C@](C)(OC)C[C@@H](C)C(=O)[C@H](C)[C@@H](OC(=O)NCCn2cc(-c3cccc(N)c3)nn2)[C@]1(C)O,32,> 128,32,128,256,> 256,256,> 256,,
CC[C@H]1OC(=O)[C@H](C)C(=O)[C@H](C)[C@@H](O[C@H]2O[C@@H](C)C[C@@H](N(C)C)[C@@H]2O)[C@](C)(OC)C[C@@H](C)C(=O)[C@H](C)[C@@H](OC(=O)NCCn2cc(-c3ccccc3OC)nn2)[C@]1(C)O,16,> 128,4,128,> 256,> 256,256,> 256,,
CC[C@H]1OC(=O)[C@H](C)C(=O)[C@H](C)[C@@H](O[C@H]2O[C@@H](C)C[C@@H](N(C)C)[C@@H]2O)[C@](C)(OC)C[C@@H](C)C(=O)[C@H](C)[C@@H](OC(=O)NCCCn2cc(-c3ccc(C(C)(C)C)cc3)nn2)[C@]1(C)O,16,> 128,16,128,64,64,32,128,8 - 16,8 - 16
